In US12601742B2, “Methods and materials for treating endometrial cancer by assessing combinations of mutations and expression levels” (Mayo Foundation for Medical Education and Research, priority 2020, dated 2026):

Experiments:
[1] = system: ARK-2 cell line; assay: MTT cell viability assay and synergy assessment, ARK-2; type: cell-based; conditions: constant ratio, 72 hours; for combinatory effect of carboplatin with GSK2141795 (cell viability): ARK-2, simultaneous exposure
Description: (§1) HEC-1B (Type I) and ARK-2 (Type II), platinum-insensitive EC cell lines, were used in this study. Both cell lines were cultured in DMEM (Dulbecco's Modified Eagle's Medium) media containing 10% FBS, 100 μg/mL streptomycin, 100 units/mL penicillin, and 2 mM L-glutamine. Cells were maintained in incubator at 37° C. in an atmosphere containing 5% CO2. Three thousand cells/well were seeded in triplicate in 96-well plates and cells were treated with increasing concentrations of panobinostat, GSK2141795, and carboplatin for 72 hours, respectively. CellTiter 96® Aqueous One Solution Cell Proliferation Assay was performed according to the manual to assess the half maximum inhibitory concentration (IC50). Constant ratio studies were carried out to investigate the combinatory effect of carboplatin with panobinostat and GSK2141795 in both HEC-1B and ARK-2 cell lines.

[2] = system: HEC-1B cell line; assay: MTT cell viability assay and synergy assessment, HEC-1B; type: cell-based; conditions: constant ratio, 72 hours; for combinatory effect of carboplatin with GSK2141795 (cell viability): simultaneous exposure
Description: as §1

Cn1ncc(Cl)c1-c1cc(C(=O)N[C@H](CN)Cc2ccc(F)c(F)c2)oc1Cl [GSK2141795]
synergism: combinatory effect of carboplatin with GSK2141795 (cell viability) [1] | combinatory effect of carboplatin with GSK2141795 (cell viability) [2]

N.N.O=C([O-])C1(C(=O)[O-])CCC1.[Pt+2] [carboplatin]
synergism: combinatory effect of carboplatin with GSK2141795 (cell viability) [1] | combinatory effect of carboplatin with panobinostat (cell viability) ([1]; ARK-2, varying concentrations) | combinatory effect of carboplatin with GSK2141795 (cell viability) [2] | combinatory effect of carboplatin with panobinostat (cell viability) ([2]; varying concentrations)
